Measurements: PubChem BioAssay (NCI)
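GI50 is the concentration that inhibits growth by half. TGI marks complete inhibition of growth.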

Tests used:
Assay in all cases: inhibition of tumour cell growth, NCI panel, 384-well format
A498 renal = test system: A498 renal
DU-145 prostate = test system: DU-145 prostate
EKVX NSCLC = test system: EKVX NSCLC
HOP-62 NSCLC = test system: HOP-62 NSCLC
K-562 leukemia = test system: K-562 leukemia
M14 melanoma = test system: M14 melanoma
NCI-H460 NSCLC = test system: NCI-H460 NSCLC
NCI-H522 lung = test system: NCI-H522 lung
NCI/ADR-RES ovarian = test system: NCI/ADR-RES ovarian
OVCAR-4 ovarian = test system: OVCAR-4 ovarian
RXF 393 renal = test system: RXF 393 renal
SK-MEL-5 melanoma = test system: SK-MEL-5 melanoma
T-47D breast = test system: T-47D breast

CC(C)C[C@H](NC(=O)[C@H](Cc1ccccc1)NC(=O)c1cnccn1)B(O)O
GI50 (A498 renal): < 10 nM | TGI (A498 renal): < 12.4 nM | GI50 (DU-145 prostate): < 10 nM | TGI (DU-145 prostate): < 13.8 nM | GI50 (EKVX NSCLC): < 10 nM | TGI (EKVX NSCLC): < 19 nM | GI50 (HOP-62 NSCLC): < 10 nM | TGI (HOP-62 NSCLC): < 12.5 nM | GI50 (K-562 leukemia): < 10 nM | TGI (K-562 leukemia): < 10 nM | GI50 (M14 melanoma): < 10 nM | TGI (M14 melanoma): < 10 nM | GI50 (NCI-H460 NSCLC): < 13 nM | TGI (NCI-H460 NSCLC): 19.9 nM | GI50 (NCI-H522 lung): < 10 nM | TGI (NCI-H522 lung): < 10 nM | GI50 (NCI/ADR-RES ovarian): 32.1 nM | TGI (NCI/ADR-RES ovarian): 92.6 nM | GI50 (OVCAR-4 ovarian): < 10 nM | TGI (OVCAR-4 ovarian): < 10 nM | GI50 (RXF 393 renal): < 10 nM | TGI (RXF 393 renal): < 10 nM | GI50 (SK-MEL-5 melanoma): < 10 nM | TGI (SK-MEL-5 melanoma): < 10 nM | GI50 (T-47D breast): < 10 nM | TGI (T-47D breast): < 10 nM
